# Assay results taken from US8299223B2, “Pseudoglycolipid and use thereof” (Riken, priority 2007, dated 2012).
# Tests used:
# IL-4 [1] = assay: Experimental Example 3: dendritic cells plus human peripheral blood mononuclear cells, IL-4 in culture supernatant; assay type: cell-based; conditions: culture supernatants; as compared to α-GalCer and α-C-GalCer; FIG. 4
# Procedure: (§1) The following experiment was performed for human NKT cell proliferation and IFN-γ production induction.
# (§2) Monocytes were prepared from the peripheral blood of a healthy subject by anti-CD14 microbeads (Miltenyi Biotech), and dendritic cells were induced using GM-CSF and IL-4 (Peprotech). To the dendritic cells was added α-GalCer or synthetic glycolipid (α-C-GalCer, compound 11′, compound 51′), human peripheral blood mononuclear cell was added and the cells were cultured.
# IFN-γ [2] = assay: Experimental Example 3: human NKT cell proliferation and IFN-γ production induction, dendritic cells plus peripheral blood mononuclear cells, IFN-γ in culture supernatant; assay type: cell-based; conditions: as compared to α-GalCer and α-C-GalCer; for IFN-γ concentration of the culture supernatants: 3 days and 8 days later, FIG. 4 (a), (b); for selectivity of IFN-γ production induction: IFN-γ versus IL-4, FIG. 4 (a)-(d)
# Procedure: as §1, §2
# In this experiment, the IFN-γ concentration of the culture supernatants 3 days and 8 days later was measured. As a result, the concentration was very high when stimulated with compound 11′ and compound 51′ as compared to α-GalCer and α-C-GalCer (FIG. 4 (a), (b)).
# IL-4 [3] = assay: Experimental Example 1: IL-4 content of plasma after intraperitoneal injection in C57BL/6 mouse (Cytometric bead array); assay type: in vivo; conditions: intraperitoneal 100, 10 or 1 μg/kg body weight, plasma 3, 6 and 12 hr after administration, FIG. 2
# Procedure: (§3) Compound 11′ was dissolved in […] saline (manufactured by OTSUKA PHARMACEUTICAL CO., LTD) containing Tween 20 (Bio-Rad) and prepared to a dose of 100 μg/kg body weight, 10 μg/kg body weight or 1 μg/kg body weight C57BL/6 mouse (5 per group), and the compound 11′ solution (200 μL) was intraperitoneally injected.
# (§4) α-GalCer was used as a control substance, and 200 μL of each α-GalCer solution prepared to a dose of 100 μg/kg body weight, 10 μg/kg body weight or 1 μg/kg body weight according to a similar method was intraperitoneally injected.
# (§5) A group administered with a medium (200 μL of saline containing 0.5% Tween 20) was taken as a negative control. The blood (80 μL) was taken from the orbital plexus venosus immediately before administration and 3, 6, 12, 24, 36 and 48 hr after administration, and the plasma was prepared. The IL-4 content of plasma immediately before administration and 3, 6 and 12 hr after administration, as well as IFN-γ content of plasma immediately before administration and 6, 12, 24, 36 and 48 hr after administration were measured by Cytometric bead array system (BD Biosciences), which is one kind of the ELISA method. The measurement results of IFN-γ production amount are shown FIG. 1 and the measurement results of IL-4 production amount are shown in FIG. 2.
# IFN-γ [4] = assay: Experimental Example 1: IFN-γ content of plasma after intraperitoneal injection in C57BL/6 mouse (Cytometric bead array); assay type: in vivo; conditions: intraperitoneal 100, 10 or 1 μg/kg body weight, plasma 6, 12, 24, 36 and 48 hr after administration, FIG. 1
# Procedure: as §3, §4, §5
# B16 melanoma = assay: Experimental Example 2: anti-liver metastasis effect, survival after intrasplenic transfer of B16 melanoma; assay type: in vivo, mouse; conditions: FIG. 3
# Procedure: The following experiment was performed for the anti-liver metastasis effect.
# The left side of mouse was opened under anesthesia, and the spleen was exposed. 1×10^6 B16 melanoma was intrasplenically transferred using a 1 mL syringe (TERUMO CORPORATION), maintained for 30 sec, and the blood vessel was sutured. The spleen was isolated and the peritoneal membrane was sutured with a surgical thread (No. 4, Alfresa Pharma Corporation), and the outer skin was joined with a surgical clip. After 3 hr from the cell transfer, α-GalCer and compound 11′ were administered each in an amount of 2, 0.2 or 0.02 μg per mouse from the tail vein and the survival rate of each group was examined.
structure (smiles),measurement,setting,value
"CCCCCCCCCCCCCCCCCCCCCCCCCC(=O)N[C@@H](CO[C@H]1CC(CO)[C@H](O)C(O)C1O)[C@H](O)[C@H](O)CCCCCCCCCCCCCC (stereo partly drawn) [compound 11′, (2S,3S,4R)-1-(5a-carba-α-D-galactopyranosyloxy)-2-(hexacosanoylamino)-3,4-octadecanediol]",IL-4 concentration,IL-4 [1],almost the same
same,IFN-γ concentration of the culture supernatants,IFN-γ [2],very high
same,selectivity of IFN-γ production induction,IFN-γ [2],selectively induced IFN-γ production
same,IL-4 production amount,IL-4 [3],in a small amount
same,IFN-γ production amount,IFN-γ [4],preferentially produced IFN-γ
same,survival period,"B16 melanoma; 2, 0.2 or 0.02 μg per mouse from the tail vein 3 hr after cell transfer, as compared to the non-treatment group and the α-GalCer administration group",extended
same,survival period,"B16 melanoma; administration of 0.2 and 0.02 μg per mouse, as compared to the α-GalCer administration group",remarkable elongated
"CCCCCCCCCCCCCCCCCCCCCCCCCC(=O)N[C@@H](CO[C@H]1C[C@H](C)[C@H](O)[C@H](O)[C@H]1O)[C@H](O)[C@H](O)CCCCCCCCCCCCCC [compound 51′, (2S,3S,4R)-1-(5a-carba-α-D-fucopyranosyloxy)-2-(hexacosanoylamino)-3,4-octadecanediol]",IL-4 concentration,IL-4 [1],almost the same
same,IFN-γ concentration of the culture supernatants,IFN-γ [2],very high
same,selectivity of IFN-γ production induction,IFN-γ [2],selectively induced IFN-γ production
"CCCCCCCCCCCCCCCCCCCCCCCCCC(=O)N[C@@H](COC1OC(CO)C(O)C(O)C1O)[C@H](O)[C@H](O)CCCCCCCCCCCCCC (stereo partly drawn) [α-GalCer, α-galactosylceramide, reference compound]",IL-4 production amount,IL-4 [3],in large amounts
same,IFN-γ production amount,IFN-γ [4],in large amounts
